Experimental data: PubChem BioAssay (NCI)
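Test compounds were applied to cells in 96-well plates for 48 hours at 5 doses. Definition used: TGI = concentration required for complete inhibition of growth.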

Columns and labels:
Test in all cases: growth of human tumour cells (NCI), 48 h
[1] = test system: UACC-257 melanoma
[2] = test system: SF-268 CNS
[3] = test system: NCI-H23 lung
[4] = test system: U251 CNS
[5] = test system: OVCAR-5 ovarian
[6] = test system: CCRF-CEM leukemia
[7] = test system: EKVX NSCLC
[8] = test system: KM12 colon
[9] = test system: NCI/ADR-RES ovarian
[10] = test system: M14 melanoma

## COC(=O)N1CC[C@@H]2CCC=C(c3cccc4c3OCO4)[C@@H]21
[1]
  TGI: > 100 µM
[2]
  TGI: > 100 µM
[3]
  TGI: > 100 µM
[4]
  TGI: > 100 µM
[5]
  TGI: > 100 µM
[6]
  TGI: > 100 µM
[7]
  TGI: > 100 µM
[8]
  TGI: > 100 µM
[9]
  TGI: > 100 µM
[10]
  TGI: > 100 µM

## COc1ccc2c(c1)/C(=C(\C(Cl)=C(Cl)Cl)[N+](=O)[O-])N2
[1]
  TGI: > 100 µM
[2]
  TGI: > 100 µM
[3]
  TGI: > 100 µM
[4]
  TGI: > 100 µM
[5]
  TGI: > 100 µM
[6]
  TGI: > 100 µM
[7]
  TGI: > 100 µM
[8]
  TGI: > 100 µM
[9]
  TGI: > 100 µM
[10]
  TGI: > 100 µM

## C=C1CC(OC(C)=O)/C=C(/C)CCC(C(C)(C)O)CC1O (stereo not given)
[1]
  TGI: > 100 µM
[2]
  TGI: > 100 µM
[3]
  TGI: > 100 µM
[4]
  TGI: > 100 µM
[5]
  TGI: > 100 µM
[6]
  TGI: > 100 µM
[7]
  TGI: > 100 µM
[8]
  TGI: > 100 µM
[9]
  TGI: > 100 µM
[10]
  TGI: > 100 µM

## Cc1cccc2c1Oc1cc(Cl)ccc1C2NC(=O)CCN1CCCCC1 (stereo not given)
[1]
  TGI: 30.5 µM
[2]
  TGI: 83.2 µM
[3]
  TGI: 37.5 µM
[4]
  TGI: 29.5 µM
[5]
  TGI: 31.9 µM
[6]
  TGI: 32.4 µM
[7]
  TGI: 55.5 µM
[8]
  TGI: 30.8 µM
[9]
  TGI: 32 µM
[10]
  TGI: 34 µM

## CCOC(=O)c1ccc(N=C2SC(=S)N(c3ccc(F)cc3)C2=Nc2ccc(C(=O)OCC)cc2)cc1
[1]
  TGI: 37.4 µM
[2]
  TGI: > 37.6 µM
[3]
  TGI: 44.2 µM
[4]
  TGI: 44.2 µM
[5]
  TGI: 38.7 µM
[6]
  TGI: > 57.6 µM
[7]
  TGI: 63.9 µM
[8]
  TGI: > 71.7 µM
[9]
  TGI: 44.8 µM
[10]
  TGI: 25.6 µM

## CCOC(=O)C(SCCO)C(C(=O)OCC)n1ccc(N)nc1=O (stereo not given)
[1]
  TGI: > 100 µM
[2]
  TGI: > 100 µM
[3]
  TGI: > 100 µM
[4]
  TGI: > 100 µM
[5]
  TGI: > 100 µM
[6]
  TGI: > 100 µM
[7]
  TGI: > 100 µM
[8]
  TGI: > 100 µM
[9]
  TGI: > 100 µM
[10]
  TGI: > 100 µM

## NC(CCCCCP(=O)(O)O)C(=O)O (stereo not given)
[1]
  TGI: > 100 µM
[2]
  TGI: > 100 µM
[3]
  TGI: > 100 µM
[4]
  TGI: > 100 µM
[5]
  TGI: > 100 µM
[6]
  TGI: > 100 µM
[7]
  TGI: > 100 µM
[8]
  TGI: > 100 µM
[9]
  TGI: > 100 µM
[10]
  TGI: > 100 µM

## Cc1c2c(c(C)c3c[n+](C)ccc13)Oc1ccccc1O2
[1]
  TGI: 25.9 µM
[2]
  TGI: 11.8 µM
[3]
  TGI: 40.4 µM
[4]
  TGI: 22.3 µM
[5]
  TGI: > 31.6 µM
[6]
  TGI: 37.6 µM
[7]
  TGI: > 100 µM
[8]
  TGI: 6.42 µM
[9]
  TGI: > 100 µM
[10]
  TGI: > 59.7 µM

## O=C(ON=c1c2ccccc2ccc2ccccc12)c1cc([N+](=O)[O-])cc([N+](=O)[O-])c1
[1]
  TGI: > 100 µM
[2]
  TGI: > 100 µM
[3]
  TGI: > 100 µM
[4]
  TGI: > 100 µM
[5]
  TGI: > 100 µM
[6]
  TGI: 94 µM
[7]
  TGI: > 100 µM
[8]
  TGI: > 100 µM
[9]
  TGI: > 100 µM
[10]
  TGI: > 100 µM

## NNC(N)=Nc1cccc2ccccc12
[1]
  TGI: > 100 µM
[2]
  TGI: > 100 µM
[3]
  TGI: > 100 µM
[4]
  TGI: > 100 µM
[5]
  TGI: > 100 µM
[6]
  TGI: > 100 µM
[7]
  TGI: > 100 µM
[8]
  TGI: > 100 µM
[9]
  TGI: > 100 µM
[10]
  TGI: > 100 µM

## O=C(CSc1nc2ccc(I)cc2c(=O)n1Cc1ccccc1)N/N=C/c1ccccc1
[1]
  TGI: > 100 µM
[2]
  TGI: 32.4 µM
[3]
  TGI: 71.3 µM
[4]
  TGI: 33.3 µM
[5]
  TGI: > 100 µM
[6]
  TGI: > 100 µM
[7]
  TGI: > 100 µM
[8]
  TGI: > 100 µM
[9]
  TGI: 92 µM
[10]
  TGI: > 100 µM

## C/C(CC(O)(C(F)(F)F)C(F)(F)F)=N\N
[1]
  TGI: > 10 µM
[2]
  TGI: > 10 µM
[3]
  TGI: > 10 µM
[4]
  TGI: > 10 µM
[5]
  TGI: > 10 µM
[6]
  TGI: > 10 µM
[7]
  TGI: > 10 µM
[8]
  TGI: > 10 µM
[9]
  TGI: > 10 µM
[10]
  TGI: > 10 µM

## O=C1C(NS(=O)(=O)c2ccccc2)=C(n2cnc3ccccc32)C(=O)c2ccccc21
[1]
  TGI: > 100 µM
[2]
  TGI: > 100 µM
[3]
  TGI: > 100 µM
[4]
  TGI: > 100 µM
[5]
  TGI: > 100 µM
[6]
  TGI: > 100 µM
[7]
  TGI: > 100 µM
[8]
  TGI: > 100 µM
[9]
  TGI: > 100 µM
[10]
  TGI: > 100 µM

## O=C(CC(=O)c1ccncc1)c1ccccc1
[1]
  TGI: > 100 µM
[2]
  TGI: > 100 µM
[3]
  TGI: > 100 µM
[4]
  TGI: > 100 µM
[5]
  TGI: > 100 µM
[6]
  TGI: > 41.8 µM
[7]
  TGI: > 100 µM
[8]
  TGI: > 100 µM
[9]
  TGI: 69.3 µM
[10]
  TGI: > 100 µM

## CC(C)OP(=O)(OC(C)C)C(C(F)(F)F)C(F)(F)F
[1]
  TGI: > 100 µM
[2]
  TGI: > 100 µM
[3]
  TGI: > 100 µM
[4]
  TGI: > 100 µM
[5]
  TGI: > 100 µM
[6]
  TGI: > 100 µM
[7]
  TGI: > 100 µM
[8]
  TGI: > 100 µM
[9]
  TGI: > 100 µM
[10]
  TGI: > 100 µM

## CC(=O)OCC1C(C(C)OC(C)=O)CCC2C1CCC1(C)C(OC(C)=O)CCC21 (stereo not given)
[1]
  TGI: 31.9 µM
[2]
  TGI: 52.5 µM
[3]
  TGI: 76.1 µM
[4]
  TGI: 30.5 µM
[5]
  TGI: > 100 µM
[6]
  TGI: 42.6 µM
[7]
  TGI: 32.9 µM
[8]
  TGI: 31.3 µM
[9]
  TGI: 44.9 µM
[10]
  TGI: 31.9 µM

## CN1CN(c2ccccc2)C2(CCNCC2)C1=O
[1]
  TGI: > 100 µM
[2]
  TGI: > 100 µM
[3]
  TGI: > 100 µM
[4]
  TGI: > 100 µM
[5]
  TGI: > 100 µM
[6]
  TGI: > 100 µM
[7]
  TGI: > 100 µM
[8]
  TGI: > 100 µM
[9]
  TGI: > 100 µM
[10]
  TGI: > 100 µM
